# Assays:
# Experiment in all cases: relative viability (nuclei count vs DMSO), 5 days (fraction); higher = more cells survive
# [1] = compound: Cc1ccc(C(=O)Nc2ccc(CN3CCN(C)CC3)c(C(F)(F)F)c2)cc1C#Cc1cnc2cccnn12 [Ponatinib] + Cc1nc(NC(=O)N2CCC[C@H]2C(N)=O)sc1-c1ccnc(C(C)(C)C(F)(F)F)c1 [Alpelisib] (partner 2 µM)
# How it was run: (§1)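 Relative viability is defined as nuclei in treated wells over nuclei in vehicle wells. Duplicate plates were run and medians reported. Lung cancer cell lines in 1536-well plates were dosed by pin tool one day after seeding, with one drug or with a fixed anchor-drug dose plus five library-drug doses (not always all listed) in √10 steps, and nuclei were counted after 5 days.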
# [2] = compound: Cc1ccc(Nc2nccc(N(C)c3ccc4c(C)n(C)nc4c3)n2)cc1S(N)(=O)=O [Pazopanib] + Cc1nc(NC(=O)N2CCC[C@H]2C(N)=O)sc1-c1ccnc(C(C)(C)C(F)(F)F)c1 [Alpelisib] (partner 2 µM)
# How it was run: as §1
# [3] = compound: Cc1ccc(Nc2nccc(N(C)c3ccc4c(C)n(C)nc4c3)n2)cc1S(N)(=O)=O [Pazopanib] + CS(=O)(=O)CCNCc1ccc(-c2ccc3ncnc(Nc4ccc(OCc5cccc(F)c5)c(Cl)c4)c3c2)o1 [Lapatinib] (partner 2 µM)
# How it was run: as §1
# [4] = compound: Cc1ccc(C(=O)Nc2ccc(CN3CCN(C)CC3)c(C(F)(F)F)c2)cc1C#Cc1cnc2cccnn12 [Ponatinib] + Nc1ncn([C@H]2C[C@H](O)[C@@H](CO)O2)c(=O)n1 [Decitabine] (partner 2 µM)
# How it was run: as §1
Cell Line,relative viability ([1]; first compound 0.002 µM),relative viability ([1]; first compound 0.006325 µM),relative viability ([1]; first compound 0.06325 µM),relative viability ([1]; first compound 0.2 µM),relative viability ([2]; first compound 0.01 µM),relative viability ([2]; first compound 0.03162 µM),relative viability ([2]; first compound 0.1 µM),relative viability ([2]; first compound 0.3162 µM),relative viability ([2]; first compound 1 µM),relative viability ([3]; first compound 0.01 µM),relative viability ([3]; first compound 0.03162 µM),relative viability ([3]; first compound 0.1 µM),relative viability ([3]; first compound 0.3162 µM),relative viability ([3]; first compound 1 µM),relative viability ([4]; first compound 0.002 µM),relative viability ([4]; first compound 0.006325 µM),relative viability ([4]; first compound 0.06325 µM),relative viability ([4]; first compound 0.2 µM)
LK-2,1.12,1.05,1.17,0.668,0.816,0.996,1.03,1.05,0.843,0.764,0.804,0.959,1,0.952,0.301,0.312,0.273,0.274
LOU-NH91,0.703,0.792,0.822,0.713,0.754,0.729,0.774,0.816,0.746,0.646,0.744,0.748,0.759,0.872,0.778,0.788,0.868,0.766
LU99A,0.519,0.453,0.62,0.466,0.428,0.505,0.416,0.517,0.544,0.727,0.978,0.992,1.12,1.07,0.803,0.968,0.992,0.789
LXF-289,1.05,1.02,1.04,1.08,1.06,1.04,1.02,1.03,1.09,0.908,0.935,0.902,0.909,0.897,0.388,0.359,0.36,0.379
NCI-H23,0.61,0.818,0.905,0.666,0.676,0.73,0.738,0.693,0.919,0.887,1.3,1.41,1.09,1.14,0.286,0.313,0.332,0.297
NCI-H322M,0.77,0.694,0.866,0.827,0.846,1.03,0.779,0.632,0.926,0.587,0.645,0.653,0.632,0.618,0.681,0.688,0.736,0.629
NCI-H358,0.886,0.95,0.942,0.772,1.06,0.892,0.91,0.864,0.922,0.482,0.53,0.356,0.442,0.489,0.193,0.326,0.221,0.204
NCI-H460,0.515,0.548,0.683,0.662,0.432,0.529,0.52,0.531,0.6,1.05,1.06,1.04,0.946,1.15,0.533,0.471,0.559,0.454
NCI-H520,0.747,0.834,0.882,0.66,,1.04,0.884,0.873,0.816,,0.96,0.766,0.859,0.921,0.426,0.483,0.45,0.411
NCI-H596,0.428,0.449,0.495,0.399,0.473,0.479,0.487,0.457,0.513,0.931,1.03,1.03,0.981,1.17,0.925,0.999,0.984,1
NCI-H647,1.12,1.25,1.06,0.961,1.37,1.31,1.35,1.19,1.11,0.87,1.21,1.17,1.08,1.16,0.319,0.369,0.429,0.407
NCI-H650,0.964,1.08,1.22,0.99,1.06,1.35,1.19,1.11,1.08,0.814,1.08,0.933,0.909,1.36,0.296,0.319,0.341,0.299
NCI-H661,0.562,0.79,0.733,0.506,0.549,0.581,0.595,0.669,0.866,0.538,0.629,0.476,0.431,0.648,0.524,0.537,0.562,0.515
NCI-H727,0.599,0.533,0.72,0.468,0.634,0.693,0.637,0.664,0.717,0.79,0.988,0.801,0.878,0.891,0.909,1.01,0.838,0.933
NCI-H838,1.01,0.982,1.13,0.812,1.01,1.02,1.07,1.08,1.11,0.961,1.09,0.97,1.02,1.13,0.417,0.475,0.458,0.487
NCI-H1355,0.832,0.87,1.01,0.917,,0.765,0.99,0.871,0.849,,0.845,0.93,0.989,1.17,0.335,0.355,0.399,0.346
NCI-H1395,,1.03,1.09,0.804,1.02,1.03,1.02,1.12,1.17,0.788,1.27,0.981,1.05,1.1,0.816,0.714,0.682,0.615
NCI-H1437,0.952,0.969,1.17,1.03,0.938,1.02,0.964,0.938,1.05,0.919,0.877,0.823,0.815,0.785,0.498,0.548,0.606,0.593

# Source: the supplement of paper PMC10307832
